Laboratory results: ChEMBL document CHEMBL4842358, “Design, synthesis and biological evaluation of sphingosine-1-phosphate receptor 2 antagonists as potent 5-FU-resistance reversal agents for the treatment of colorectal cancer” (Eur J Med Chem, 2021)
pEC50: −log10 of the molar value. Activity calls are given as the source filed them. The calls are words filed in the database; no cut-off is given here.

Experiments:
[1] = target: T1, Sphingosine 1-phosphate receptor 2 (Homo sapiens, UniProt O95136); assay: Binding affinity to S1PR2 (unknown origin) assessed as association constant measured for 60 secs by surface plasmon resonance assay; conditions: filed as antagonist, time 60.0 sec
T1 sequence (O95136 whole entry): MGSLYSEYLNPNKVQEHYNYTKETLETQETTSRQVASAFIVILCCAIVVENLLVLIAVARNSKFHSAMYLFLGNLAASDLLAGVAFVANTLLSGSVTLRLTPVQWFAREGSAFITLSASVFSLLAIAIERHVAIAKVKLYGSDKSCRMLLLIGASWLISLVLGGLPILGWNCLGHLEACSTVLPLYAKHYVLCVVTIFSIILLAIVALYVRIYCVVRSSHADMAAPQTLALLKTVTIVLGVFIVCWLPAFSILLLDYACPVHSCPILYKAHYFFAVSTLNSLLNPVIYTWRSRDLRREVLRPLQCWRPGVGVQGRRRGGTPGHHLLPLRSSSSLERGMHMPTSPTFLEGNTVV

[2] = target: T1, Sphingosine 1-phosphate receptor 2; assay: Binding affinity to S1PR2 (unknown origin) assessed as dissociation constant measured for 60 secs by surface plasmon resonance assay
[3] = target: T1, Sphingosine 1-phosphate receptor 2; assay: Binding affinity to S1PR2 (unknown origin) measured by surface plasmon resonance assay; conditions: filed as antagonist
[4] = Reversal of 5-FU resistance against human SW620/5-FU cells assessed as inhibition of cell proliferation measured after 72 hrs in presence of 5-FU by MTT assay; type: functional, cell-based
HCT-116 = assay: Reversal of 5-FU resistance against human HCT-116 cells overexpressing DPD assessed as inhibition of cell proliferation measured after 72 hrs in presence of 5-FU by MTT assay; type: functional, cell-based; conditions: HCT-116, 72 h
NCM460 = assay: Cytotoxicity against human NCM460 cells assessed as cell viability measured after 72 hrs in presence of 5-FU by MTT assay; type: cell-based; conditions: NCM460, 72 h
[5] = target: T1, Sphingosine 1-phosphate receptor 2; assay: Antagonist activity at S1PR2 in human SW620/5-FU cells assessed as downregulation of DPD expression by western blot analysis; type: functional, cell-based; conditions: filed as antagonist

Compound	Ka [1]	Dissociation rate constant (koff) [2]	K [3]	pEC50 [4]	pEC50 (HCT-116)	pEC50 (NCM460)	inhibition [5]
O=C(NNc1nc(N2CCOCC2)c2ccn(C3CC3)c2n1)Nc1cc(Cl)nc(Cl)c1	6.12 10^4/M/s	1.33 10^-1/s	2.17 10^-6M	3.36	3.35	3.26	
O=C(Nc1cc(Cl)nc(Cl)c1)Nc1cc(Cl)nc(OC2CCCC2)c1	4.49 10^5/M/s	1.79 10^-1/s	3.99 10^-7M	5.21	5.29	4.67	Active
CCOc1cc(NC(=O)Nc2cc(Cl)nc(Cl)c2)cc(Cl)n1	1.96 10^5/M/s	1.02 10^-1/s	5.2 10^-7M	5.09	5.21	4.60	Active
Cc1cc(NC(=O)Nc2cc(Cl)nc(Cl)c2)n(C)n1	5.36 10^4/M/s	1.77 10^-1/s	3.3 10^-6M	4.17	4.03	3.87	
CNc1cc(C)nc(NNC(=O)Nc2cc(Cl)nc(Cl)c2)n1	5.56 10^4/M/s	2.36 10^-1/s	4.24 10^-6M	3.91	4.63	4.19	
Cc1cc(NC(=O)Nc2cc(Cl)nc(Cl)c2)cc(C)n1	5.69 10^6/M/s	1.46 10^-1/s	2.57 10^-8M	3.63	4.06	3.24	
COc1c(Cl)cc(NC(=O)Nc2cc(Cl)nc(Cl)c2)cc1Cl	6.24 10^6/M/s	3.12 10^-1/s	5 10^-8M	5.08	4.38	4.56	Active
COc1ccc(-c2ccc3cc(NC(=O)Nc4cc(Cl)nc(Cl)c4)nn3c2)cc1	9.12 10^6/M/s	1.12 10^-1/s	1.22 10^-8M	5.02	5.27	5.08	Active
O=C(Nc1cc(Cl)nc(Cl)c1)Nc1cc2ccc(-c3ccccc3)cn2n1	4.59 10^6/M/s	2.01 10^-1/s	4.38 10^-8M	5.03	5.29	5.09	Active
CN(C)c1nc(NNC(=O)Nc2cc(Cl)nc(Cl)c2)nc2c1ccn2C	7.55 10^4/M/s	1.02 10^-1/s	1.85 10^-6M	4.32	4.38	4.23	
O=C(Nc1ccnc(Cl)c1)Nc1cc(Cl)nc(Cl)c1	3.65 10^4/M/s	2.01 10^-1/s	5.5 10^-6M	4.51	4.79	4.26	
O=c1[nH]cc(F)c(=O)[nH]1 [FLUOROURACIL]				< 3.00	< 3.00	4.36	
CN1CCN(C(=O)Nc2cc(Cl)nc(Cl)c2)CC1	1.98 10^5/M/s	1.06 10^-1/s	5.35 10^-7M	3.26	3.85	3.28	
O=C(Nc1cc(Cl)cc(Cl)c1)Nc1cc(Cl)nc(Cl)c1	3.26 10^4/M/s	1.16 10^-1/s	3.56 10^-6M	4.91	4.94	4.26	Active
O=C(Nc1cc(Cl)nc(Cl)c1)Nc1cc2ccc(Br)cn2n1	8.31 10^7/M/s	0.168 s⁻¹	2.02 10^-8M	4.93	5.28	5.05	Active
Cn1ccc2c(-c3ccccc3)nc(NNC(=O)Nc3cc(Cl)nc(Cl)c3)nc21	5.21 10^4/M/s	1.36 10^-1/s	2.61 10^-6M	3.28	3.18	3.17	
O=C(NNc1nc(Nc2ccccc2)nc(N2CCCC2)n1)Nc1cc(Cl)nc(Cl)c1	7.15 10^5/M/s	1.33 10^-1/s	1.86 10^-7M	4.50	4.64	4.19	
CC(C)Oc1cc(NC(=O)Nc2cc(Cl)nc(Cl)c2)cc(Cl)n1	9.14 10^5/M/s	1.19 10^-1/s	1.3 10^-7M	5.29	5.28	4.68	Active
COc1cc(NC(=O)Nc2cc(Cl)nc(Cl)c2)cc(Cl)n1	3.21 10^5/M/s	2.19 10^-1/s	6.82 10^-7M	4.85	4.95	4.48	Active
O=C(Nc1cc(Cl)nc(Cl)c1)Nc1cc2ccccn2n1	7.93 10^6/M/s	1.16 10^-1/s	1.46 10^-8M	5.60	5.29	4.99	Active
